Experiments:
[1] = system: yeast; test: yeast level on SDA medium after biocide contact (Comparative Example 3); assay type: cell-based; conditions: 2 hours after contact, biocide concentration 50 ppm
From the text: (§1) A comparison is done to show the effect of four different biocides on yeast level and bacteria level in various media and at various points relative to introduction of the biocide. SDA medium is synthetic defined agar, and PCA medium is plate count agar. Dow Antimicrobial™ 7287 is a composition containing 20 percent 2,2-dibromo-3-nitrilopropionamide (DBNPA), sold by The Dow Chemical Company.

[2] = system: bacteria; test: bacteria level on PCA medium after biocide contact (Comparative Example 3); assay type: cell-based; conditions: PCT medium, 2 hours after contact; biocide concentration 50 ppm
From the text: as §1

## Diethyl Carbamate
[1]
  Yeast level: <1.0 × 10^4 cfu/ml
[2]
  Bacteria level: 2.6 × 10^7 cfu/ml

From US20110027846A1, “CONTROL OF BACTERIA IN FERMENTATION PROCESSES” (priority 2007, published 2011)
